This note sets out measurements from US20040034049A1, “Promoters for the proliferation and differentiation of stem cells and/or neuron precursor cells” (priority 2003, published 2004).

Structures are written as SMILES.

The subject of the assay is rat mixed glia culture. Nature of the assay: Neural neogenesis promoting effect in rat mixed glia culture (differentiation assay, β III tubulin positive cell count). Conditions: 120 h, 1 μM compound, 5 days differentiation, β III tubulin positive cells, % activity based on non-treatment control, read-out: Differentiation or neogenesis promoting activity (%). An excerpt: Neural Neogenesis Promoting Effect in Rat Mixture Glia Culture
A neonatal SD rat was purchased from Charles River Japan, Inc. A nylon cell strainer with 40 micron in diameter was purchased from Becton Dickinson. DMEM/F12 Medium, antibiotics, N2 additives were purchased from LIFE TECHNOLOGY. Anti-β III-tubulin antibody was purchased from Sigma. DAKO EnVision+/HRP kit was purchased from DAKO Japan. Other reagents were commercial products of analytical grade.
A rat mixed glia culture was made from a hippocampus of a neonatal SD rat of 2 days old. The neonate was anesthetized by ice-cooling, sacrificed by decapitation and the brain was taken out immediately. The meninx was removed carefully, and the […] was separated. The hippocampus was pulverized mechanically by passing through a nylon cell strainer with 40 micron in diameter. The cell dispersion was overlaid on serum, and the cells were fractionated by a non-continuous gradient centrifugation. The pellet was washed twice with a growth medium (DMEM/F12 supplemented with 10% FBS and antibiotics) and then dispersed. The mixed glia culture was inoculated onto a collagen-coated 96-well multiplate at the density of 1×10^5 cells per well, and incubated for 5 days.
After incubating for 5 days, the mixed glia culture was subjected to a differentiation assay. The growth medium was replaced with a serum-free medium (DMEM/F12 supplemented with N2 additives and antibiotics) and the test compound was added simultaneously. After allowing to undergo the differentiation for 5 days followed by fixation with 4% p-formaldehyde, a mouse anti-β III tubulin monoclonal antibody and DAKO EnVision+/HRP kit was used to effect an immunostaining.
The β III tubulin positive cells were counted, and the data in the presence (1 μM) of the Compound (I) and the absence (control) were compared.
As to `COc1cc2c(cc1OC)CN(c1c(C)c(C)c3c(c1C)C(c1ccc(C(C)C)cc1)C(C)(C)O3)C2` (stereo not drawn) [Example 11a, 5,6-dimethoxy-2-[3-(4-isopropylphenyl)-2,2,4,6,7-pentamethyl-2,3-dihydro-1-benzofuran-5-yl]isoindoline], the activity at 1 µM amounted to 478%.

On to `COc1cc2c(cc1OC)CN(c1c(C)c(C)c3c(c1C)[C@@H](c1ccc(C)cc1)C(C)(C)O3)C2` [Example 17a, (R)-5,6-dimethoxy-2-[2,2,4,6,7-pentamethyl-3-(4-methylphenyl)-2,3-dihydro-1-benzofuran-5-yl]isoindoline], for which the activity at 1 µM came out at 344%.

As to `Cc1c(C)c2c(c(C)c1NCc1ccc(F)cc1)C(c1ccc(C(C)C)cc1)C(C)(C)O2` (stereo not drawn) [Example 19b, N-(4-fluorobenzyl)-3-(4-isopropylphenyl)-2,2,4,6,7-pentamethyl-2,3-dihydro-1-benzofuran-5-amine], the activity at 1 µM was determined as 468%.
